Test results published in patent publication US20190269666A1, “COMBINATION THERAPY WITH MERESTINIB AND ANTI-PD-L1 OR ANTI-PD-1 INHIBITORS FOR USE IN THE TREATMENT OF CANCER” (Eli Lilly and Company, priority 2016, published 2019).

What was measured:
CT26 cells = assay: CT26 cell proliferation; format: cell-based; settings: Mus musculus, in vitro
Description: CT26 CRC tumor cells harbor KRAS activating mutation G12D. […] CT26 cells also express high level of phospho-AXL (p-AXL) by western blot analysis and merestinib is shown to decrease p-AXL in vitro by more than 60% at a concentration of 500 nM in the mouse phospho-RTK array, but show very little effect on CT26 cell proliferation (IC50>20 μM).

[1] = system: 80-murine immune gene panel (mRNA expression) in CT26 tumors; assay: Immuno-landscape analysis, QuantiGene mu-80 immune gene panel on CT26 tumors; format: in vivo, mouse; settings: for Log2 (difference to vehicle control): CT26 tumors, Day 20
Description: Frozen tumor fragments of the samples collected on study Day 20 from 5 animals from each treatment arm (study S010516) are analyzed for gene expression of 80 markers using the Quantigene murine-80 panel (mu-80 immune panel #21681). Total RNA was isolated from lysed samples using the MAGMAX™ 96 Total RNA isolation kit (Life Technologies). Snap-frozen tumor fragments are lysed by adding 500 μL, of prepared lysis/binding buffer (MAGMAX™ 96 Total RNA isolation kit) with a single stainless steel bead (5 mm) and then homogenized on a TissueLyser (Qiagen) for 2 minutes at 25 Hz. 200 μL of lysate, along with 120 μL of 100% isopropanol and 40 μL of prepared magnetic beads mix are then transferred to a 96 deep well processing plate. A series of washes and a DNase incubation step are processed on the MAGMAX™ Express-96 Deep Well Magnetic Particle Processor (Life Technologies). RNA is eluted from the magnetic beads with […] of elution buffer after a final wash step. RNA concentration is determined spectrophotometrically to determine optical density at 260 and 280 nm and is then diluted to the final concentration of 25 ng/μl. Tissue expression of immune related genes is then measured using a QuantiGene® 2.0 Plex assay (Affymetrix) with a custom probe set (mu-80 immune panel #21681, Table 6). Four house-keeping-genes (HKG: Gusb, Hprt1, Ppib, Rps18) are used to normalize the gene expression data. Data are normalized and curated using the Genepattern script v28.8. Statistics and bioinformatics are used to analyze the data.
Five hundred ng of total RNA from samples being analyzed is added in duplicate to individual wells of a 96-well hybridization plate containing QuantiGene® magnetic capture beads, QuantiGene® probeset #21681, and QuantiGene® blocking reagent for a final volume of 100 μL. The hybridization plate is then sealed and incubated at 54° C. while agitated at 600 rpm for 16 hours. Samples are then transferred to a 96-well assay plate and beads are then sequentially hybridized first with 100 μl of QuantiGene® Pre-Amplifier Probe, then with QuantiGene® Amplifier Probe, and finally with QuantiGene® Label Probe (1 hour at 50° C. for each step, with 2-3 washes between each step using a magnetic capture plate). Streptavidin-conjugated R-Phycoerythrin (SAPE, Affymetrix) is added after the last hybridization step and incubated for 30 minutes at room temperature with agitation at 600 rpm. Samples are then analyzed on the FLEXMAP 3D® Luminex instrument (Luminex Corp). Beads (mRNA target) are identified with a red laser while the level of RNA is determined by measuring the mean fluorescence intensity (MFI) of Phycoerythrin with a green laser. Raw MFI data are then converted into relative gene expression for each gene (Normalized Adjusted Net MFI, background subtracted and normalized to 4 housekeeping genes), using a quality control analysis script with GenePattern (Broad Institute). […] Next, the lower limit of detection (LLOD) is determined (average background MFI+3 standard deviation (SD)). […] Relative gene expression is then calculated by normalizing for each gene's adjusted net MFI to the geometric mean of the MFI of selected housekeeping genes (HKG) including Hprt1, Gusb, Rps18 and Ppib, as shown in Table 6: (Sample Adjusted Net MFI/geometric mean Adjusted Net HKG MFI) multiplied by a scaling factor of 100. […]

Cc1ccc(C(=O)Nc2ccc(Oc3cc4cnn(C)c4cc3-c3cn[nH]c3)c(F)c2)c(=O)n1-c1ccc(F)cc1 [merestinib, N-(3-fluoro-4-(1-methyl-6-(1H-pyrazol-4-yl)-1H-indazol-5-yloxy)phenyl)-1-(4-fluorophenyl)-6-methyl-2-oxo-1,2-dihydropyridine-3-carboxamide]
IC50 (CT26 cells): > 20 µM | Log2 (difference to vehicle control) ([1]; gene Cdh1): 1.01 | Log2 (difference to vehicle control) ([1]; gene Cdh1, listed as Merestinib alone): 1.0 | Log2 (difference to vehicle control) ([1]; gene Tnfrsf): 0.8 | number of immune genes with no significant change vs vehicle control ([1]; of an 80-immune gene panel): 79 | number of immune genes significantly different from vehicle control ([1]; of the 80 immune genes measured, tumors Day 20): 1
